In US20230265068A1, “TRANSIENT RECEPTOR POTENTIAL CANONICAL 3 INHIBITORS AND METHODS OF USE THEREOF” (University of Tennessee Research Foundation, priority 2020, published 2023):

How the values were obtained:
hTRPM8 = molecular target: T1, hTRPM8 (Homo sapiens, UniProt Q7Z2W7); assay: whole-cell patch clamp selectivity, HEK 293 cells overexpressing hTRPM8; assay type: cell-based; conditions: HEK293, with agonist, solutions without Ca2+, read-out: % of the current of hTRPM8 inhibited
T1 construct: expressed in transfected cells; host or cells: HEK293, transient transfection, pMO vector
T1 sequence (Q7Z2W7 whole entry): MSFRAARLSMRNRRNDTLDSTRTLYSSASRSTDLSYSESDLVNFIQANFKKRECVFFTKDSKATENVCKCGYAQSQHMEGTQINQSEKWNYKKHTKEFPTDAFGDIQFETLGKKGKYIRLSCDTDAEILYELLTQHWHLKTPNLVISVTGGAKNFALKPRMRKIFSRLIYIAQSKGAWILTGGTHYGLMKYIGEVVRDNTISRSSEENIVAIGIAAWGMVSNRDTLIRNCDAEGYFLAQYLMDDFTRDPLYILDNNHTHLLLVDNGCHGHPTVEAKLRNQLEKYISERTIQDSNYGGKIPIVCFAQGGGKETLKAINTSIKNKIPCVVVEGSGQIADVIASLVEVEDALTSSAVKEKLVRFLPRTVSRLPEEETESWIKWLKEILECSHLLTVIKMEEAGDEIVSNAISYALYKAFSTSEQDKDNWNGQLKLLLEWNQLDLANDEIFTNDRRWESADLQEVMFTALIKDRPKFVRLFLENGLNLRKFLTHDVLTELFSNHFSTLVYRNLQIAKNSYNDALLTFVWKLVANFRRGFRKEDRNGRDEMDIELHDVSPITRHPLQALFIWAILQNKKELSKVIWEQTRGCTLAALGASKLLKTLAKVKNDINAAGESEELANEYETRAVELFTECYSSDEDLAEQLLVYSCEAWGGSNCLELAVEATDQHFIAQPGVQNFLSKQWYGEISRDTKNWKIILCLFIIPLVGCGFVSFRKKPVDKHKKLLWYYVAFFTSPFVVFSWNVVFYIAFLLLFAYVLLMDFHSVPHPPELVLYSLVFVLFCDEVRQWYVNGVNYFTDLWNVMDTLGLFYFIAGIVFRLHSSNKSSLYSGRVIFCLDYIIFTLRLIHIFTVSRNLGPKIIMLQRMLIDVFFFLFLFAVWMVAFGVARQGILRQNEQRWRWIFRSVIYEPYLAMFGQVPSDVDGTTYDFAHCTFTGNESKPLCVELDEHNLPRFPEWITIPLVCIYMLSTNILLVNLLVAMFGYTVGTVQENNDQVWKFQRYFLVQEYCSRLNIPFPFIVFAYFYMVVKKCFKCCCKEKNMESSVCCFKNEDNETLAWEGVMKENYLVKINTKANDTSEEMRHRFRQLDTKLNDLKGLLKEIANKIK
Method: (§1) Human embryonic kidney 293 (HEK293; catalog number CRL-1573) cells were cultured in Dulbecco's modified Eagle's medium (Invitrogen) supplemented with 10% fetal bovine serum and 1% penicillin-streptomycin at 37° C. and 5% CO2. Constructs cloned in pMO (a pcDNA3-modified vector) were co-transfected with GFP-pMO, using Lipofectamine 2000 (Invitrogen) according to the manufacturer's instructions. Macroscopic currents in the whole-cell patch clamp configuration were recorded 18-24 h post-transfection. The extracellular solution contained 140 mM NaCl, 6 mM KCl, 2 mM MgCl2, 10 mM HEPES, and 10 mM glucose (pH 7.4). Pipettes were made of borosilicate glass (outer diameter, 1.5 mm; inner diameter, 1.10 mm; Sutter Instruments) and fire-polished with a resistance between 2.8 and 4.0 megaohms when filled with an intracellular solution that contained 140 mM CsCl, 5 mM EGTA, and 10 mM HEPES, pH 7.2. Currents were recorded with a Multiclamp 700B amplifier (Molecular Devices) using a 1-s ramp from −100 to 100 mV. […] Data were acquired with a sampling rate of 20 kHz, low-pass filtered (10 kHz), and analyzed offline using Clampfit v10.4.2.0 (Molecular Devices). […]

mmTRPC6 = molecular target: T2, mmTRPC6 (Mus musculus, UniProt Q61143); assay: whole-cell patch clamp selectivity, HEK 293 cells overexpressing mmTRPC6; assay type: cell-based; conditions: HEK293, with agonist, solutions without Ca2+, read-out: % of the current of hTRPC6 inhibited
T2 construct: expressed in transfected cells; host or cells: HEK293, transient transfection, pMO vector
T2 sequence (Q61143 1-930): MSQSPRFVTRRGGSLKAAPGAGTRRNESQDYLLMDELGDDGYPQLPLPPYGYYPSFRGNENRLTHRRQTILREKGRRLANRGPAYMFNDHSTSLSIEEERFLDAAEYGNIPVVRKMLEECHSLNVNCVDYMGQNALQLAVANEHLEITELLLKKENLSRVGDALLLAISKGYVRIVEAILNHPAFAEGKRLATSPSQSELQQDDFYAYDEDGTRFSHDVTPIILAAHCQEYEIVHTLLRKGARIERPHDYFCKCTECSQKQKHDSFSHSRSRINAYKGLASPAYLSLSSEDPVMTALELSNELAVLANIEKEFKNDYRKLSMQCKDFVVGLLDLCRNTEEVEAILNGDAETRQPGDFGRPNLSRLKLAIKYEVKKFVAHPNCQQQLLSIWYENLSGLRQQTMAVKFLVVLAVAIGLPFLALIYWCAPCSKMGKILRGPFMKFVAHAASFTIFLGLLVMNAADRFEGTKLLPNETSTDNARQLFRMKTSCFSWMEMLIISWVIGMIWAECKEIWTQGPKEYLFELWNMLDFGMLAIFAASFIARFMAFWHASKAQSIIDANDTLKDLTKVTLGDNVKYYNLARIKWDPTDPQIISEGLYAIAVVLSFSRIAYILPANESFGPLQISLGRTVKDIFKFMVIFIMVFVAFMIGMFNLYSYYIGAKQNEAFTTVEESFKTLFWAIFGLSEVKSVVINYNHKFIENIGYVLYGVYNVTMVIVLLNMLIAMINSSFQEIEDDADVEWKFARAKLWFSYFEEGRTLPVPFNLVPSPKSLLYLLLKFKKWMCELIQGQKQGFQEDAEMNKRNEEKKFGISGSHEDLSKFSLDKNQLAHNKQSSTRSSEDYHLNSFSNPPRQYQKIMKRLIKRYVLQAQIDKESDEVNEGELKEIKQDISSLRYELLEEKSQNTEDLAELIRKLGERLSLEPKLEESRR
Method: as §1

PTZ-induced seizures = assay: mouse pentylenetetrazole (PTZ) model of SE; assay type: in vivo, mice; conditions: 100 mg/kg, i.p., 30 min before PTZ; vs vehicle
Method: FIGS. 8A-8B show the inhibition of TRPC3 channels by compound 22 reduces susceptibility of animals to PTZ-induced seizures. Young adult C57BL/6 mice (male, 8-9 weeks) were first treated by compound 22 (100 mg/kg, i.p.), and 30 minutes later by pentylenetetrazole (PTZ, 80±5 mg/kg, s.c.) for the induction seizures. (FIG. 8A) Percentages of mice reaching myoclonic jerk (MJ, Left) and generalized tonic-clonic seizure (GTCS, Right) were compared between vehicle and compound 22-treated mice by Mantel-Cox log-rank test. (FIG. 8B) Latencies to the first MJ (Left) and first GTCS (Right) were compared between vehicle and compound 22 by t-test. Data are shown as mean+SEM (number of mice N=9 for vehicle; 10 for compound 22).
To ensure that the efficacy observed in FIG. 7 is not associated with this particular mouse model of epilepsy, we examined the effects of our current lead compound 22 on pentylenetetrazole (PTZ)-induced seizures in mice. As a GABA receptor antagonist, PTZ is another convulsant chemical commonly used to generate seizures in experimental rodents. Young adult C57BL/6 mice (male, 8-9 weeks) were first treated by 22 (100 mg/kg, i.p.) or vehicle. Thirty minutes later, mice were subcutaneously injected with (PTZ, ˜80 mg/kg) to induced seizures. Animals were placed in a plexiglass chamber, and the latencies to the first myoclonic jerk (MJ) and the first generalized tonic-clonic seizure (GTCS) were recorded during a 30-min period of observation. […] Given that PTZ (FIG. 8) and pilocarpine (FIG. 7) trigger seizures via different mechanisms of actions, it is unlikely the anti-seizure effects of our lead compound 22 are model-specific.

Structure (SMILES): CCNC(=O)c1cnn(-c2ccc(-n3ccc(Cl)c(Cl)c3=O)cc2)c1C(F)(F)F [Compound 22]
- inhibition at 10 µM (hTRPM8): < 5%
- inhibition at 10 µM (mmTRPC6): ~39%
- latency to first GTCS (PTZ-induced seizures): significantly increased
- latency to first MJ (PTZ-induced seizures): significantly increased
- percentage of mice that reached generalized tonic-clonic seizure (GTCS) (PTZ-induced seizures): substantially reduced
- percentage of mice that reached myoclonic jerk (MJ) (PTZ-induced seizures): substantially reduced
